Target: Ec SspA (Escherichia coli, UniProt P0ACA3)
Assay: single-channel recording in planar lipid bilayers
Type: biochemical
Conditions: channel blocker, POPE:POPS:cholesterol 4:1:1, 500 mM KCl cis vs 50 mM KCl trans, 10 mM Tris-HCl pH 7.4, 1 mM DTT, room temperature

Ec SspA, sequence (P0ACA3 whole entry): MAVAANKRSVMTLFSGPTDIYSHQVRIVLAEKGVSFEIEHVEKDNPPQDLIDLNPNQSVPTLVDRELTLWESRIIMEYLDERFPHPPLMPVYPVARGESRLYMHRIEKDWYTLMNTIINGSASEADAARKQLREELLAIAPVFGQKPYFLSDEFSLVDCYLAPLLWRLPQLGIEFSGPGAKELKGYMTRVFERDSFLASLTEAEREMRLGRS

CC1(C2CCCC2)Cc2cc(OCC(=O)O)c(Cl)c(Cl)c2C1=O (stereo not shown) [IAA-94] was tested, and the “open probability at 100 μM” value was 0.1 ± 0.05.

— PMC5561075, “Identification and Characterization of a Bacterial Homolog of Chloride Intracellular Channel (CLIC) Protein” (Scientific Reports, 2017)
